# Columns and labels:
# [1] = molecular target: Dipeptidyl peptidase 9 (Homo sapiens, UniProt Q86TI2)
# [2] = Plasma half-life of compound was determined in rat; type: ADME, cell-free
# [3] = molecular target: Dipeptidyl peptidase 4 (Homo sapiens, UniProt P27487)
# [4] = Oral bioavailability in rat; type: ADME, organism-based; settings: in vivo
# [5] = molecular target: Voltage-gated inwardly rectifying potassium channel KCNH2 (Homo sapiens, UniProt Q12809)
# [6] = molecular target: Dipeptidyl peptidase 8 (Homo sapiens, UniProt Q6V1X1)
# [7] = molecular target: Dipeptidyl peptidase 2 (Homo sapiens, UniProt Q9UHL4)
# [8] = Plasma cearance of compound was determined in rat; type: ADME, organism-based; settings: read-out: Clp
# Dipeptidyl peptidase 8, sequence (Q6V1X1 whole entry): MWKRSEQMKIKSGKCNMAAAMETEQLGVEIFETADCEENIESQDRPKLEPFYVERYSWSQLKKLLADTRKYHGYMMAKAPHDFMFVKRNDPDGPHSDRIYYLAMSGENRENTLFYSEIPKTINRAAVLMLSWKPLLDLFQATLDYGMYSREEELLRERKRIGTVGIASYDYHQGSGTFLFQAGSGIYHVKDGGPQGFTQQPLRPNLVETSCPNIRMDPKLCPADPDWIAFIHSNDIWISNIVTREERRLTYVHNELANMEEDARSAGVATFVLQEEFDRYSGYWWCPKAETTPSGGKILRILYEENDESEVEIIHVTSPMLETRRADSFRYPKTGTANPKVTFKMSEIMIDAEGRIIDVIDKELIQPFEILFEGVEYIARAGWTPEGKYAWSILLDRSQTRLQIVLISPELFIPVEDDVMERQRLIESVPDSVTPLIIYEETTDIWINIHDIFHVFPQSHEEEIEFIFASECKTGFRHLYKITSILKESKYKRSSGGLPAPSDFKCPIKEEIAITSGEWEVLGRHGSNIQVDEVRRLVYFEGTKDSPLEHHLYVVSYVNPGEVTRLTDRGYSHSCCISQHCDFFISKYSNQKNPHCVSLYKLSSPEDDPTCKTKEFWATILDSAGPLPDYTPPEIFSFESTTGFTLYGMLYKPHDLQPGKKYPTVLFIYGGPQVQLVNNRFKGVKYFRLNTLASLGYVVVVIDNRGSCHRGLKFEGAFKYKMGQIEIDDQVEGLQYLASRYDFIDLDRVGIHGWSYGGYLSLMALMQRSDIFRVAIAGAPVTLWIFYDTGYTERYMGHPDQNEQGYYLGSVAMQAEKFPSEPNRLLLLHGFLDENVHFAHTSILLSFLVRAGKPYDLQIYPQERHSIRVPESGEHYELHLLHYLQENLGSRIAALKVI
# Dipeptidyl peptidase 4, sequence (P27487 whole entry): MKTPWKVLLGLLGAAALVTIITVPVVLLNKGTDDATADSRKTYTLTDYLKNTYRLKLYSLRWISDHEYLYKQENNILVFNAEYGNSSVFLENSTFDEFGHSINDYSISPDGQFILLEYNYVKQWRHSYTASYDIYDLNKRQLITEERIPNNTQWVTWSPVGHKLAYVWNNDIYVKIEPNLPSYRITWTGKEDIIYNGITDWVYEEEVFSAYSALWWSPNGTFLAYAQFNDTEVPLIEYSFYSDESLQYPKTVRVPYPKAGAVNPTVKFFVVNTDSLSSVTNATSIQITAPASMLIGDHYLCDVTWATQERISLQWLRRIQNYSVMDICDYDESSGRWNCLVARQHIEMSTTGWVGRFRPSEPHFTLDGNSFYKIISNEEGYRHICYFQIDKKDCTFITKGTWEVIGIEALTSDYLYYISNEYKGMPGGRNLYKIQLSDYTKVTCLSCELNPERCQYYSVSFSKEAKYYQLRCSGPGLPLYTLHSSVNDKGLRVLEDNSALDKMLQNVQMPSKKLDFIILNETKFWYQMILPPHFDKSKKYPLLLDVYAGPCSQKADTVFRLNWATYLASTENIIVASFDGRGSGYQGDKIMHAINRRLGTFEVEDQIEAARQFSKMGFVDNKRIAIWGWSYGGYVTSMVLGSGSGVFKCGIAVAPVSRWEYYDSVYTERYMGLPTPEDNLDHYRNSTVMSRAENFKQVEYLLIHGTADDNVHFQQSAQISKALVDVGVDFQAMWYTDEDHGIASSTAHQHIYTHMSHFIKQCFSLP
# Dipeptidyl peptidase 9, sequence (Q86TI2 whole entry): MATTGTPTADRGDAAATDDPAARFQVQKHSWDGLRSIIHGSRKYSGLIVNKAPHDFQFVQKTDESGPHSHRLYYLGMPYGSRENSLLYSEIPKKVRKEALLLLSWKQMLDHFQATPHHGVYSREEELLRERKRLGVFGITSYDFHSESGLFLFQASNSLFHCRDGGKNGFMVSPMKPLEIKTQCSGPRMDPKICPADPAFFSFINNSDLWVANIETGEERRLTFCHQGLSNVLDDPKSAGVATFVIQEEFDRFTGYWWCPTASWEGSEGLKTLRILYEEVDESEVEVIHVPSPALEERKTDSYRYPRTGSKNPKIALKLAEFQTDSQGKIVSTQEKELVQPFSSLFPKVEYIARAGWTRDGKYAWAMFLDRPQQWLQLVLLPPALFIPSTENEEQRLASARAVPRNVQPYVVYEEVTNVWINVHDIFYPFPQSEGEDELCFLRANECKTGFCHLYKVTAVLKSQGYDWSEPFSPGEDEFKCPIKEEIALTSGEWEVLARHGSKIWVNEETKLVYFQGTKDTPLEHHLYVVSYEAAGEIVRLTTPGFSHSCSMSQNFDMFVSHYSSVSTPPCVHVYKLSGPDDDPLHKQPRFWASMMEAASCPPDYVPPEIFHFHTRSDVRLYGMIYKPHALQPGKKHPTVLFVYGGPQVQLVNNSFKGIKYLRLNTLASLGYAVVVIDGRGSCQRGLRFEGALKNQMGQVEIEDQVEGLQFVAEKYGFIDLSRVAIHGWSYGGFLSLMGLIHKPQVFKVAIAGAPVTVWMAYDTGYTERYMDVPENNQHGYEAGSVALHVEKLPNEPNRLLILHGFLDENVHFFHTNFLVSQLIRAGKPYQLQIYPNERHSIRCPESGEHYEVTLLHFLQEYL
# Voltage-gated inwardly rectifying potassium channel KCNH2, sequence (Q12809 whole entry): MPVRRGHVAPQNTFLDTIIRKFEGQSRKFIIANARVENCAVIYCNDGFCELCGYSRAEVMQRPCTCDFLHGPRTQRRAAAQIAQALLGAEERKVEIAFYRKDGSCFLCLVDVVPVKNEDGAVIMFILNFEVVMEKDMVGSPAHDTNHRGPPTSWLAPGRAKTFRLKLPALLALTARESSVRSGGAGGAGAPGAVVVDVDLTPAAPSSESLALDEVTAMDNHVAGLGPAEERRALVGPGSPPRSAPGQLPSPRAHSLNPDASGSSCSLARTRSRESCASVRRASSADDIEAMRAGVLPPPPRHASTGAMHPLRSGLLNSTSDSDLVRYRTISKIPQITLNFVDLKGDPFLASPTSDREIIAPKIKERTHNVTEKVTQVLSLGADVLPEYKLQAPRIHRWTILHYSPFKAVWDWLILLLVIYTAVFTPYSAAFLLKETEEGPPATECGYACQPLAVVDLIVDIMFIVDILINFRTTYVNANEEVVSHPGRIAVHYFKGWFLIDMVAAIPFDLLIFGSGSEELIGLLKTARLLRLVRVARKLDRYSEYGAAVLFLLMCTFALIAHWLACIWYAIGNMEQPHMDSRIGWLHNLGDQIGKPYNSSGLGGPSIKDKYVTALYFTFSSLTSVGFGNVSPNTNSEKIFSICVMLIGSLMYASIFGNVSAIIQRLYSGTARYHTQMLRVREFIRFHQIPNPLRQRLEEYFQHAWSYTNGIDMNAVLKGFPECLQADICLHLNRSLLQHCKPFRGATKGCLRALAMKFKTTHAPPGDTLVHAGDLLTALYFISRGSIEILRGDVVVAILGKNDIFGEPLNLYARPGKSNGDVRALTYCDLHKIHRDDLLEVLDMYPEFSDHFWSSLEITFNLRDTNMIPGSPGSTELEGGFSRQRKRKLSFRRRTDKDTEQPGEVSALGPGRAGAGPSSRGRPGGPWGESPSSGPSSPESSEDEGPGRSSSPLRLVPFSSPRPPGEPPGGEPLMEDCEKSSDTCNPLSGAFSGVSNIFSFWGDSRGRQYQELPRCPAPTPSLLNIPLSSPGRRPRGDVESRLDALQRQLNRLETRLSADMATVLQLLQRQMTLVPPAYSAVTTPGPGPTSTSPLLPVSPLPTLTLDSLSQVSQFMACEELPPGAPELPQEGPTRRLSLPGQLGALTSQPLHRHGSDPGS
Compound,IC50 [1],half-life [2],IC50 [3],bioavailability [4],IC50 [5],IC50 [6],IC50 [7],clearance [8]
C[C@@H](c1ccc(-c2cccc(-c3noc(O)n3)c2)cc1)[C@H](N)C(=O)N1CC[C@H](F)C1.O=C(O)C(F)(F)F,> 100 µM,66 min,0.003 µM,4.2%,28 µM,> 100 µM,1.1 µM,23.9 mL/min/kg
C[C@@H](c1cc(F)cc(F)c1)[C@H](N)C(=O)N1CC[C@H](F)C1,> 100 µM,–,3.7 µM,–,–,> 100 µM,7.8 µM,–
C[C@@H](c1ccc(-c2cccc(S(N)(=O)=O)c2)cc1)[C@H](N)C(=O)N1CC[C@H](F)C1,> 100 µM,–,0.14 µM,–,–,> 100 µM,3.6 µM,–
CCOC(=O)c1cccc(-c2ccc([C@H](C)[C@H](N)C(=O)N3CC[C@H](F)C3)cc2)c1,> 100 µM,–,0.075 µM,–,–,> 100 µM,0.49 µM,–
C[C@@H](c1ccc(-c2cccc(-c3nn[nH]n3)c2)cc1)[C@H](N)C(=O)N1CC[C@H](F)C1.O=C(O)C(F)(F)F,–,18 min,0.006 µM,3.5%,–,> 100 µM,2.9 µM,132 mL/min/kg
C[C@@H](c1ccc(-c2cccc(-c3nc[nH]n3)c2)cc1)[C@H](N)C(=O)N1CC[C@H](F)C1,> 100 µM,–,0.098 µM,–,–,> 100 µM,0.35 µM,–
C[C@@H](c1ccc(-c2cccnc2)cc1)[C@H](N)C(=O)N1CC[C@H](F)C1,> 100 µM,–,0.11 µM,–,–,> 100 µM,4.8 µM,–
C[C@@H](c1ccc(-c2ccccc2C(F)(F)F)cc1)[C@H](N)C(=O)N1CC[C@H](F)C1,> 100 µM,–,0.13 µM,–,–,> 100 µM,2.5 µM,–
C[C@@H](c1ccc(-c2ccccc2)c(F)c1)[C@H](N)C(=O)N1CC[C@H](F)C1,> 100 µM,–,2 µM,–,–,> 100 µM,48 µM,–
C[C@@H](c1ccc(-c2ccccc2Cl)cc1)[C@H](N)C(=O)N1CC[C@H](F)C1,> 100 µM,–,0.086 µM,–,–,> 100 µM,0.38 µM,–
C[C@@H](c1ccc(-c2nccs2)cc1)[C@H](N)C(=O)N1CC[C@H](F)C1,> 100 µM,–,1.5 µM,–,–,> 100 µM,0.72 µM,–
C[C@@H](c1ccc(C(F)(F)F)cc1)[C@H](N)C(=O)N1CC[C@H](F)C1,> 100 µM,–,0.6 µM,–,–,> 100 µM,5.2 µM,–
C[C@@H](c1ccc(F)cc1Cl)[C@H](N)C(=O)N1CC[C@H](F)C1,> 100 µM,–,4.2 µM,–,–,> 100 µM,46 µM,–
COc1ccc([C@H](C)[C@H](N)C(=O)N2CC[C@H](F)C2)cc1,> 100 µM,–,0.77 µM,–,–,> 100 µM,14 µM,–
C[C@@H](c1ccc(S(C)(=O)=O)cc1)[C@H](N)C(=O)N1CC[C@H](F)C1,> 100 µM,–,3.6 µM,–,–,> 100 µM,36 µM,–
CCOC(=O)c1ccc(-c2ccc([C@H](C)[C@H](N)C(=O)N3CC[C@H](F)C3)cc2)cc1,> 100 µM,–,0.44 µM,–,–,> 100 µM,0.12 µM,–
C[C@@H](c1ccc(N2CCCCC2)cc1)[C@H](N)C(=O)N1CC[C@H](F)C1,> 100 µM,–,7.9 µM,–,–,> 100 µM,28 µM,–

Compound,IC50 [1],half-life [2],IC50 [3],bioavailability [4],IC50 [5],IC50 [6],IC50 [7],clearance [8]
C[C@@H](c1ccc(Cl)cc1F)[C@H](N)C(=O)N1CC[C@H](F)C1,> 100 µM,–,0.48 µM,–,–,> 100 µM,5.6 µM,–
C[C@@H](c1ccc(-c2ccc(F)cc2)cc1)[C@H](N)C(=O)N1CC[C@H](F)C1.O=C(O)C(F)(F)F,–,132 min,–,–,–,–,–,–
C[C@@H](c1ccc(Br)cc1)[C@H](N)C(=O)N1CC[C@H](F)C1,> 100 µM,–,0.25 µM,–,–,> 100 µM,3.6 µM,–
C[C@@H](c1ccc(-c2ccncc2)cc1)[C@H](N)C(=O)N1CC[C@H](F)C1,> 100 µM,–,0.11 µM,–,–,> 100 µM,3.1 µM,–
C[C@@H](c1ccc(-c2ccc(F)cc2F)cc1)[C@H](N)C(=O)N1CC[C@H](F)C1,> 100 µM,–,0.037 µM,–,–,> 100 µM,2.5 µM,–
C[C@@H](c1ccc(-c2cccc(NS(C)(=O)=O)c2)cc1)[C@H](N)C(=O)N1CC[C@H](F)C1,> 100 µM,–,0.15 µM,–,–,> 100 µM,0.25 µM,–
C[C@@H](c1ccccc1)[C@H](N)C(=O)N1CC[C@H](F)C1,> 100 µM,–,1.4 µM,–,–,> 100 µM,59 µM,–
COc1ccccc1-c1ccc([C@H](C)[C@H](N)C(=O)N2CC[C@H](F)C2)cc1,> 100 µM,–,0.11 µM,–,–,> 100 µM,3.8 µM,–
C[C@@H](c1ccc(-c2cccc(C(=O)O)c2)cc1)[C@H](N)C(=O)N1CC[C@H](F)C1.O=C(O)C(F)(F)F,> 100 µM,24 min,0.056 µM,2.3%,–,> 100 µM,9.2 µM,50.8 mL/min/kg
C[C@@H](c1ccccc1F)[C@H](N)C(=O)N1CC[C@H](F)C1,> 100 µM,–,1.1 µM,–,–,> 100 µM,19 µM,–
C[C@@H](c1ccc(-c2ccc(NS(C)(=O)=O)cc2)cc1)[C@H](N)C(=O)N1CC[C@H](F)C1,> 100 µM,–,0.71 µM,–,–,> 100 µM,1.8 µM,–
C[C@@H](c1ccc(F)cc1C(F)(F)F)[C@H](N)C(=O)N1CC[C@H](F)C1,> 100 µM,–,54 µM,–,–,> 100 µM,> 100 µM,–
C[C@@H](c1cccc(Cl)c1)[C@H](N)C(=O)N1CC[C@H](F)C1,> 100 µM,–,1.1 µM,–,–,> 100 µM,5.7 µM,–
C[C@@H](c1ccc(Cl)cc1)[C@H](N)C(=O)N1CC[C@H](F)C1,> 100 µM,–,0.17 µM,–,–,> 100 µM,5.9 µM,–
C[C@@H](c1ccc(-c2cccc(-c3nnco3)c2)cc1)[C@H](N)C(=O)N1CC[C@H](F)C1,> 100 µM,–,0.069 µM,–,–,> 100 µM,0.96 µM,–
C[C@@H](c1ccc(-c2ccccc2F)cc1)[C@H](N)C(=O)N1CC[C@H](F)C1,> 100 µM,–,0.1 µM,–,–,> 100 µM,1.1 µM,–
